≈ marks a conversion by molar mass, not a printed value.
Conditions: buffer; pH 7.4; 200.0 µM

Row | Compound | solubility kinetic
1 | CCN(CC)c1ccc(C(=O)N/N=C(\C)c2cccnc2)cc1 | > 46.6 µg/mL
2 | C/C(Cl)=C\Cn1c(N2CCCC2)nc2c1c(=O)n(C)c(=O)n2C | 40.9 µg/mL (≈ 121 µM)
3 | Nc1nnc(SCC(=O)NC2CCCC2)s1 | > 38.8 µg/mL
4 | C=CCn1c(NCc2ccco2)nc2ccccc21 | > 38 µg/mL
5 | COc1ccc(C(CNC(=O)CN(C)S(=O)(=O)c2ccc(C)cc2)N2CCCC2)cc1 (stereo not given) | > 66.8 µg/mL
6 | N#Cc1ccccc1OCC(O)CS(=O)(=O)c1ccccc1 (stereo not given) | > 47.6 µg/mL
7 | OCCC1CN(Cc2cccn2-c2ncccn2)CCN1C1CCCC1 (stereo not given) | 51.5 µg/mL (≈ 145 µM)
8 | CN(C)C(=O)Oc1ccc2c(c1)O/C(=C\c1ccc(Cl)cc1)C2=O | 0.9 µg/mL (≈ 2.62 µM)
9 | Cc1ccc(S(=O)(=O)N(C)C)cc1NC(=O)COC(=O)COc1ccc2c(C)cc(=O)oc2c1 | > 73.3 µg/mL
10 | O=S(=O)(c1ccccc1)N1CCN2CCCC2C1 (stereo not given) | > 40 µg/mL
11 | O=C(COC(=O)c1ccc(Br)cc1)NCC1CCCO1 (stereo not given) | > 51.3 µg/mL
12 | Cc1ccc(C)n1-c1ccc(-c2ccnc(N)n2)cc1 | 22.5 µg/mL (≈ 85.1 µM)
13 | CCOC(=O)c1ccc(N=c2ssnc2Cl)cc1 | 4.8 µg/mL (≈ 16 µM)
14 | CCc1ccc(C(C)NC(=O)c2ccc3c(c2)OCO3)cc1 (stereo not given) | 1.6 µg/mL (≈ 5.38 µM)
15 | Cc1c(C)n(Cc2ccccc2)c2ncnc(NCCN(C)C)c12 | > 48.5 µg/mL
16 | OCCCNc1ncnc2scc(-c3ccc(Cl)cc3)c12 | > 48 µg/mL
17 | Cc1ccc(N(CC(=O)NC(C)(C)C)C(=O)CCC(=O)Nc2nccs2)cc1C | 12.2 µg/mL (≈ 29.3 µM)
18 | COc1ccc(NC(=O)CS(=O)(=O)c2ccccc2Cl)cc1 | 43.8 µg/mL (≈ 129 µM)
19 | CCOC(=O)N1CCN(CC(O)c2c[nH]c3ccccc23)CC1 (stereo not given) | > 47.6 µg/mL
20 | Cc1c2n(c3ccccc13)CC/C2=N\O | 4.9 µg/mL (≈ 24.5 µM)

Row | Compound | solubility kinetic
21 | CCOC(=O)CNC(=O)c1ccc(SCC)cc1 | > 40.1 µg/mL
22 | c1cnc2ccc(-c3ccc4ncccc4c3)cc2c1 | 7.7 µg/mL (≈ 30 µM)
23 | O=C1SC(Cc2ccccc2)C(=O)N1c1ccccc1 (stereo not given) | 6.1 µg/mL (≈ 21.5 µM)
24 | CCCCc1nc2cc(C(=O)N3CCCC3)ccc2o1 | > 40.9 µg/mL
25 | COc1ccc(C(=O)N/C(=C\c2ccco2)C(=O)OCc2ccco2)cc1 | > 55.1 µg/mL
26 | COc1ccccc1NC(=O)COC(=O)c1cc(C)n(C2CC2)c1C | 3.4 µg/mL (≈ 9.93 µM)
27 | CCCCn1cnc2c(oc3nc4c(cc32)CCCC4)c1=O | 20.6 µg/mL (≈ 69.3 µM)
28 | CCc1ccc(N2CC(C(=O)Nc3cc(C)on3)CC2=O)cc1 (stereo not given) | 26 µg/mL (≈ 83 µM)
29 | COc1cc(/C(O)=C(\C#N)c2nc3ccccc3[nH]2)cc(OC)c1OC | 7.1 µg/mL (≈ 20.2 µM)
30 | O=C(CC1CCCC1)Nc1ccc(Cl)c(S(=O)(=O)N2CCOCC2)c1 | 54.7 µg/mL (≈ 141 µM)
31 | COc1cccc(Nc2nc3ccc(OC)cc3s2)c1 | 2.8 µg/mL (≈ 9.78 µM)
32 | Fc1ccccc1-c1nc(-c2ccncc2)no1 | 6 µg/mL (≈ 24.9 µM)
33 | CCCCNc1nc2c(c(=O)n(Cc3ccccc3)c(=O)n2C)n1C | 4.1 µg/mL (≈ 12 µM)
34 | COc1ccc(CN2CCS(=O)(=O)CC2)cc1OC | > 42.8 µg/mL
35 | Cc1ccc(S(C)(=O)=NS(=O)(=O)c2cccc3nsnc23)cc1 (stereo not given) | > 55.1 µg/mL
36 | Cc1cc(Br)ccc1NC(=S)NCCc1ccccc1 | 8.6 µg/mL (≈ 24.6 µM)
37 | Cc1cc(C)n(Cc2cc(C(=O)O)c3ccccc3n2)n1 | > 42.2 µg/mL
38 | O=C(Nc1ccncc1)Nc1ccccc1Cl | 33.5 µg/mL (≈ 135 µM)
39 | CC(=O)C1=C(c2ccccc2)NC(=O)NC1c1ccccc1 (stereo not given) | > 43.9 µg/mL
40 | COc1ccc(/C=C/C(=O)OCC(=O)NCCc2ccccc2)c(OC)c1 | 8.5 µg/mL (≈ 23 µM)

Row | Compound | solubility kinetic
41 | COc1ccccc1OCCn1c(=S)[nH]c2ccccc21 | 1.4 µg/mL (≈ 4.66 µM)
42 | O=C(COC(=O)C1CC1)NC(=O)NCc1ccccc1 | > 41.4 µg/mL
43 | Cc1ccc(S(=O)(=O)N2CCOCC2)cc1NC(=O)COC(=O)c1cncc(Br)c1 | > 74.8 µg/mL
44 | O=C(COC(=O)c1cc(Cl)ccc1Cl)NC1CCCC1 | 23.8 µg/mL (≈ 75.3 µM)
45 | C#CCSc1nc(C)cc(C(=O)OCC)c1C#N | 7.2 µg/mL (≈ 27.7 µM)
46 | CC1(C)CC(=O)c2cnc(N3CCc4ccccc43)nc2C1 | 0.4 µg/mL (≈ 1.36 µM)
47 | CCN(C(=O)CSc1nc(C)nc2sc3c(c12)CCC3)C1CCS(=O)(=O)C1 (stereo not given) | 5.4 µg/mL (≈ 12.7 µM)
48 | Cc1nc(NC(=O)CN2CCCCC2)sc1C(=O)N(C)C | > 46.6 µg/mL
49 | COc1cccc(OC)c1OCC(=O)Nc1ccc(S(=O)(=O)N2CCCC2)cc1 | 2.6 µg/mL (≈ 6.18 µM)
50 | CC1(C)CC(NCCC(c2ccccc2)c2ccco2)CCO1 (stereo not given) | 44.5 µg/mL (≈ 142 µM)
51 | O=C(COc1ccccc1F)NCc1ccc(-n2cccc2)cc1 | 1.1 µg/mL (≈ 3.39 µM)
52 | Cc1ccc(N2CN(Cc3ccco3)CNC2=S)cc1 | 33.8 µg/mL (≈ 118 µM)
53 | CC(C)CC(=O)C1=C(O)C(=O)N(Cc2ccccc2)C1c1ccccc1 (stereo not given) | 47.3 µg/mL (≈ 135 µM)
54 | Oc1cccc(Nc2nc(-c3ccccc3)nc3ccccc23)c1 | 2.2 µg/mL (≈ 7.02 µM)
55 | CCCn1cnc2cc(NCc3cccs3)ccc21 | > 40.7 µg/mL
56 | Cc1cc(Nc2ccccc2)cc(=O)n1C | 30.9 µg/mL (≈ 144 µM)
57 | CCCCN(CC)Cc1c(O)ccc2c3c(c(=O)oc12)CCC3 | 44 µg/mL (≈ 139 µM)
58 | CCn1c(=O)c2c(nc3n2CCCN3c2cccc(C)c2)n(C)c1=O | 48.3 µg/mL (≈ 142 µM)
59 | Cc1ccc(NC(=O)NCCCCc2ccccc2)cc1 | < 0.3 µg/mL
60 | N#Cc1ccccc1OCC(=O)OCC(=O)c1ccc[nH]1 | 24.9 µg/mL (≈ 87.6 µM)

Source: PubChem BioAssay AID1996
